Assay results: patent US10638756B2, “Molecules having pesticidal utility, and intermediates, compositions, and processes, related thereto” (Dow AgroSciences LLC, priority 2017, dated 2020)

Columns and labels:
[1] = test system: Beet Armyworm (Spodoptera exigua); assay: Bioassay on Beet Armyworm (BAW), 128-well diet tray assay; format: in vivo; conditions: Spodoptera exigua, 168 h; 50 μg/cm^2 on artificial diet, second instar larvae, five to seven days; read-out: BAW % Control (or Mortality) rating
[2] = test system: Cabbage Looper (Trichoplusia ni); assay: Bioassay on Cabbage Looper (CL), 128-well diet tray assay; format: in vivo; conditions: 168 h, 50 μg/cm^2 on artificial diet, second instar larvae, five to seven days, read-out: CL % Control (or Mortality) rating
How it was run: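 One to five second-instar larvae per well on artificial diet surface-treated with 50 μg/cm^2 test molecule (applied in 90:10 acetone-water, dried). Held 5–7 days at 25° C, 14:10 light-dark; percent mortality recorded per well and averaged over eight wells.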

Row | SMILES | mortality at 50 µg/cm2 [1] [%] | mortality at 50 µg/cm2 [2] [%]
1 | O=C(NNc1cccc(F)n1)c1ccc(/C(F)=C/C(c2cc(Cl)c(Cl)c(Cl)c2)C(F)(F)F)cc1C(F)(F)F (centres unmarked) [F34, (Z)—N′-(6-Fluoropyridin-2-yl)-4-(1,4,4,4-tetrafluoro-3-(3,4,5-trichlorophenyl)but-1-en-1-yl)-2-(trifluoromethyl)benzohydrazide] | 50 to 100 | 50 to 100
2 | CN(NC(=O)c1ccc(/C(F)=C/C(c2cc(Cl)c(Cl)c(Cl)c2)C(F)(F)F)cc1C(F)(F)F)C1CCCC1 (centres unmarked) [F144, (Z)—N′-Cyclopentyl-N′-methyl-4-(1,4,4,4-tetrafluoro-3-(3,4,5-trichlorophenyl)but-1-en-1-yl)-2-(trifluoromethyl)benzohydrazide] | 50 to 100 | 50 to 100
3 | O=C(NNc1ncccn1)c1ccc(/C(F)=C/C(c2ccc(OC(F)(F)F)c(Cl)c2)C(F)(F)F)cc1C(F)(F)F (centres unmarked) [F50, (Z)-4-(3-(3-Chloro-4-(trifluoromethoxy)phenyl)-1,4,4,4-tetrafluorobut-1-en-1-yl)-N′-(pyrimidin-2-yl)-2-(trifluoromethyl)benzohydrazide] | 50 to 100 | 50 to 100
4 | O=C(NNC1CCCC1)c1ccc(/C(F)=C/C(c2cc(Cl)c(Cl)c(Cl)c2)C(F)(F)F)cc1C(F)(F)F (centres unmarked) [F110, (Z)—N′-Cyclopentyl-4-(1,4,4,4-tetrafluoro-3-(3,4,5-trichlorophenyl)but-1-en-1-yl)-2-(trifluoromethyl)benzohydrazide] | 50 to 100 | 50 to 100
5 | CN(NC(=O)c1ccc(/C(F)=C/C(c2cc(Cl)cc(Cl)c2)C(F)(F)F)cc1C(F)(F)F)c1ncccn1 (centres unmarked) [F151, (Z)-4-(3-(3,5-Dichlorophenyl)-1,4,4,4-tetrafluorobut-1-en-1-yl)-N′-methyl-N′-(pyrimidin-2-yl)-2-(trifluoromethyl)benzohydrazide] | 50 to 100 | 50 to 100
6 | O=C(NNc1ncccn1)c1ccc(/C(F)=C/C(c2cc(Cl)c(Cl)c(Cl)c2)C(F)(F)F)cc1Cl (centres unmarked) [F20, (Z)-2-Chloro-N′-(pyrimidin-2-yl)-4-(1,4,4,4-tetrafluoro-3-(3,4,5-trichlorophenyl)but-1-en-1-yl)benzohydrazide] | 50 to 100 | 50 to 100
7 | CN(NC(=O)c1ccc(/C(F)=C/C(c2ccc(Cl)c(OC(F)(F)F)c2)C(F)(F)F)cc1C(F)(F)F)c1ccccn1 (centres unmarked) [F60, (Z)-4-(3-(4-Chloro-3-(trifluoromethoxy)phenyl)-1,4,4,4-tetrafluorobut-1-en-1-yl)-N′-methyl-N′-(pyridin-2-yl)-2-(trifluoromethyl)benzohydrazide] | 50 to 100 | 50 to 100
8 | CN(NC(=O)c1ccc(/C(F)=C/C(c2cc(Cl)cc(OC(F)(F)F)c2)C(F)(F)F)cc1C(F)(F)F)c1ccccn1 (centres unmarked) [F61, (Z)-4-(3-(3-Chloro-5-(trifluoromethoxy)phenyl)-1,4,4,4-tetrafluorobut-1-en-1-yl)-N′-methyl-N′-(pyridin-2-yl)-2-(trifluoromethyl)benzohydrazide] | 50 to 100 | 50 to 100
9 | O=C(NNCCCC(F)(F)F)c1ccc(/C(F)=C/C(c2cc(Cl)c(Cl)c(Cl)c2)C(F)(F)F)cc1C(F)(F)F (centres unmarked) [F103, (Z)-4-(1,4,4,4-tetrafluoro-3-(3,4,5-trichlorophenyl)but-1-en-1-yl)-N′-(4,4,4-trifluorobutyl)-2-(trifluoromethyl)benzohydrazide] | 50 to 100 | 50 to 100
10 | N#CCCNNC(=O)c1ccc(/C(F)=C/C(c2cc(Cl)c(Cl)c(Cl)c2)C(F)(F)F)cc1C(F)(F)F (centres unmarked) [F142, (Z)—N′-(2-Cyanoethyl)-4-(1,4,4,4-tetrafluoro-3-(3,4,5-trichlorophenyl)but-1-en-1-yl)-2-(trifluoromethyl)benzohydrazide] | 50 to 100 | 50 to 100
11 | CN(NC(=O)c1ccc(/C(F)=C/C(c2ccc(F)c(C(F)(F)F)c2)C(F)(F)F)cc1C(F)(F)F)c1ncccn1 (centres unmarked) [F113, (Z)—N′-Methyl-N′-(pyrimidin-2-yl)-4-(1,4,4,4-tetrafluoro-3-(4-fluoro-3-(trifluoromethyl)phenyl)but-1-en-1-yl)-2-(trifluoromethyl)benzohydrazide] | 50 to 100 | 50 to 100
12 | O=C(NNc1ncccn1)c1ccc(/C(F)=C/C(c2cc(F)c(F)c(Cl)c2)C(F)(F)F)cc1C(F)(F)F (centres unmarked) [F174, (Z)-4-(3-(3-Chloro-4,5-difluorophenyl)-1,4,4,4-tetrafluorobut-1-en-1-yl)-N′-(pyrimidin-2-yl)-2-(trifluoromethyl)benzohydrazide] | 50 to 100 | 50 to 100
13 | O=C(NNc1cccc(Cl)n1)c1ccc(/C(F)=C/C(c2cc(Cl)c(Cl)c(Cl)c2)C(F)(F)F)cc1C(F)(F)F (centres unmarked) [F18, (Z)—N′-(6-Chloropyridin-2-yl)-4-(1,4,4,4-tetrafluoro-3-(3,4,5-trichlorophenyl)but-1-en-1-yl)-2-(trifluoromethyl)benzohydrazide] | 50 to 100 | 50 to 100
14 | Cc1cc(C)c(NNC(=O)c2ccc(/C(F)=C/C(c3cc(Cl)c(Cl)c(Cl)c3)C(F)(F)F)cc2C(F)(F)F)c(C)c1 (centres unmarked) [F73, (Z)—N′-Mesityl-4-(1,4,4,4-tetrafluoro-3-(3,4,5-trichlorophenyl)but-1-en-1-yl)-2-(trifluoromethyl)benzohydrazide] | 50 to 100 | 0 to 50
15 | O=C(NNc1ccc(Cl)nc1)c1ccc(/C(F)=C/C(c2cc(Cl)c(Cl)c(Cl)c2)C(F)(F)F)cc1C(F)(F)F (centres unmarked) [F136, (Z)—N′-(6-Chloropyridin-3-yl)-4-(1,4,4,4-tetrafluoro-3-(3,4,5-trichlorophenyl)but-1-en-1-yl)-2-(trifluoromethyl)benzohydrazide] | 50 to 100 | 50 to 100
16 | C=C(OCC)c1c(Cl)cc(C(/C=C(\F)c2ccc(C(=O)NNc3ncccn3)c(C(F)(F)F)c2)C(F)(F)F)cc1Cl (centres unmarked) [F190, (Z)-4-(3-(3,5-Dichloro-4-(1-ethoxyvinyl)phenyl)-1,4,4,4-tetrafluorobut-1-en-1-yl)-N′-(pyrimidin-2-yl)-2-(trifluoromethyl)benzohydrazide] | 50 to 100 | 50 to 100
17 | O=C(NNc1ccccc1F)c1ccc(/C(F)=C/C(c2cc(Cl)c(Cl)c(Cl)c2)C(F)(F)F)cc1C(F)(F)F (centres unmarked) [F28, (Z)—N′-(2-fluorophenyl)-4-(1,4,4,4-tetrafluoro-3-(3,4,5-trichlorophenyl)but-1-en-1-yl)-2(trifluoromethyl)benzohydrazide] | 50 to 100 | 50 to 100
18 | NN(CC1CC1)C(=O)c1ccc(/C(F)=C/C(c2cc(Cl)c(Cl)c(Cl)c2)C(F)(F)F)cc1C(F)(F)F (centres unmarked) [F98, (Z)—N-(Cyclopropylmethyl)-4-(1,4,4,4-tetrafluoro-3-(3,4,5-trichlorophenyl)but-1-en-1-yl)-2-(trifluoromethyl)benzohydrazide] | 50 to 100 | 50 to 100
19 | O=C(NNc1ncccn1)c1ccc(/C(F)=C\C(c2cc(Cl)c(Cl)c(Cl)c2)C(F)(F)F)cc1C(F)(F)F (centres unmarked) [F74, (E)-N′-(pyrimidin-2-yl)-4-(1,4,4,4-tetrafluoro-3-(3,4,5-trichlorophenyl)but-1-en-1-yl)-2-(trifluoromethyl)benzohydrazide] | 50 to 100 | 50 to 100
20 | O=C(NNc1c(Cl)cccc1Cl)c1ccc(/C(F)=C/C(c2cc(Cl)c(Cl)c(Cl)c2)C(F)(F)F)cc1C(F)(F)F (centres unmarked) [F129, (Z)—N′-(2,6-dichlorophenyl)-4-(1,4,4,4-tetrafluoro-3-(3,4,5-trichlorophenyl)but-1-en-1-yl)-2-(trifluoromethyl)benzohydrazide] | 50 to 100 | 50 to 100
21 | COC(=O)c1scc(C)c1NNC(=O)c1ccc(/C(F)=C/C(c2cc(Cl)c(Cl)c(Cl)c2)C(F)(F)F)cc1C(F)(F)F (centres unmarked) [F15, Methyl (Z)-4-methyl-3-(2-(4-(1,4,4,4-tetrafluoro-3-(3,4,5-trichlorophenyl)but-1-en-1-yl)-2-(trifluoromethyl)benzoyl)hydrazinyl)thiophene-2-carboxylate] | 50 to 100 | 50 to 100
22 | O=C(NNc1ncnc(Cl)n1)c1ccc(/C(F)=C/C(c2cc(Cl)c(Cl)c(Cl)c2)C(F)(F)F)cc1C(F)(F)F (centres unmarked) [F58, (Z)—N′-(4-Chloro-1,3,5-triazin-2-yl)-4-(1,4,4,4-tetrafluoro-3-(3,4,5-trichlorophenyl)but-1-en-1-yl)-2-(trifluoromethyl)benzohydrazide] | 50 to 100 | 50 to 100
23 | CN(NC(=O)c1ccc(/C(F)=C/C(c2ccc(OC(F)(F)F)c(Cl)c2)C(F)(F)F)cc1C(F)(F)F)c1ccccn1 (centres unmarked) [F107, (Z)-4-(3-(3-Chloro-4-(trifluoromethoxy)phenyl)-1,4,4,4-tetrafluorobut-1-en-1-yl)-N′-methyl-N′-(pyridin-2-yl)-2-(trifluoromethyl)benzohydrazide] | 50 to 100 | 50 to 100
24 | O=C(NNc1ncccn1)c1ccc(/C(F)=C/C(c2ccc(F)c(C(F)(F)F)c2)C(F)(F)F)cc1C(F)(F)F (centres unmarked) [F32, (Z)—N′-(Pyrimidin-2-yl)-4-(1,4,4,4-tetrafluoro-3-(4-fluoro-3-(trifluoromethyl)phenyl)but-1-en-1-yl)-2-(trifluoromethyl)benzohydrazide] | 50 to 100 | 50 to 100
25 | CN(NC(=O)c1ccc(/C(F)=C/C(c2cc(F)c(F)c(Cl)c2)C(F)(F)F)cc1C(F)(F)F)c1ncccn1 (centres unmarked) [F175, (Z)-4-(3-(3-Chloro-4,5-difluorophenyl)-1,4,4,4-tetrafluorobut-1-en-1-yl)-N′-methyl-N′-(pyrimidin-2-yl)-2-(trifluoromethyl)benzohydrazide] | 50 to 100 | 50 to 100
